Patent US20140248361A1, “HERBAL EXTRACT COMPOSITION AND A PROCESS THEREOF” (PRASAN SOLUTIONS (INDIA) PVT LTD, priority 2012, published 2014)

Key:
[1] = Oil stability index (Rancimat) of almond oil; conditions: for Induction Time: in h
Protocol: (§1) The oil stability index is determined using the Metrohm's Rancimat (Metrohm 743 Rancimat).
4.0 g of almond oil is weighed into the reaction vessel. The reaction vessel filled with oil is placed in a heating block. The temperature of the block is maintained at 100° C., 120° C. and 140° C., respectively. The oil is heated at the said temperatures, followed by passing air at a flow rate of 20 L/h. […] These compounds are conveyed by the air flow into measurement vessel containing distilled water where conductivity is being checked continuously by sensor.
The above experiment is repeated by adding 200 ppm of BHA (sample-B), 200 ppm of BHT (sample-B1), 500 ppm of alpha tocopherol (sample-B2) and PRESOL at 200 ppm, 500 ppm and 1000 ppm, respectively to almond oil. From the above experiment, oxidative stability index of untreated oil (control) and treated oil is calculated and the below table illustrates the induction time and the obtained oxidative stability.

[2] = Oil stability index (Rancimat) of apricot oil; conditions: for Induction Time at 200 ppm: in h
Protocol: As used herein, ‘Oil Stability Index (OSI)’ is an American Oil Chemists Society (AOCS) approved method that determines the relative resistance of fat and oil samples to oxidation, which is defined by the following equation—
as §1
4.0 g of apricot oil is weighed into the reaction vessel. The reaction vessel filled with oil is placed in a heating block. The temperature of the block is maintained at 100° C., 120° C. and 140° C., respectively. The oil is heated at the said temperatures, followed by passing air at a flow rate of 20 L/h. Flowing of air through the oil produces peroxides during primary oxidation and organic acids having low molecular weight, aldehydes and ketones with typical rancid odor during the secondary oxidation phase. These compounds are conveyed by the air flow into measurement vessel containing distilled water where conductivity is being checked continuously by sensor.
The above experiment is repeated by adding 200 ppm of BHA (sample-B), 200 ppm of BHT (sample-B1), 500 ppm of alpha tocopherol (sample-B2) and PRESOL at 200 ppm, 500 ppm and 1000 ppm, respectively to apricot oil.

[3] = Oil stability index (Rancimat) of fish oil; conditions: 200 ppm; for Induction Time: in h
Protocol: 4.0 g of fish oil is weighed into the reaction vessel. […] The temperature of the block is maintained at 60° C., 70° C. and 80° C., respectively.

[4] = Peroxide value of fish oil at 10° C.
Protocol: The shelf life is calculated using Rancimat shelf life calculator. The shelf life of oil is studied by carrying out chemical analysis, which include studying peroxide value (represents extent of primary oxidation), Para-anisidine value (represents extent of secondary oxidation) and totox value (reflects total oxidation of oil). […] […] The untreated oil is the control sample without any antioxidant.

Cc1cc(C(C)(C)C)c(O)c(C(C)(C)C)c1 [Sample B1, butylated hydroxyl toluene]
Induction Time ([1]; 100° C., 200 ppm): 24.98 | Induction Time ([1]; 120° C., 200 ppm): 5.89 | Induction Time ([1]; 140° C., 200 ppm): 1.48 | Induction Time at 200 ppm ([2]; 100° C., 200 ppm): 26.96 | Induction Time at 200 ppm ([2]; 120° C., 200 ppm): 5.93 | Induction Time at 200 ppm ([2]; 140° C., 200 ppm): 1.49

Cc1c(C)c2c(c(C)c1O)CC[C@@](C)(CCC[C@H](C)CCC[C@H](C)CCCC(C)C)O2 [Sample B2, alpha tocopherol]
Oxidative Stability Index (OSI) ([3]; 60° C.): 2.81 | Induction Time ([3]; 60° C.): 27.68 | Oxidative Stability Index (OSI) ([3]; 70° C.): 2.76 | Induction Time ([3]; 70° C.): 13.74 | Oxidative Stability Index (OSI) ([3]; 80° C.): 2.76 | Induction Time ([3]; 80° C.): 6.78 | days after which peroxide value crosses the threshold limit of 8 meq/kg ([4]; 200 ppm): 21 days | Peroxide value ([4]; day 0, 200 ppm): 1.74 | Peroxide value ([4]; day 3, 200 ppm): 2.13 | Peroxide value ([4]; day 6, 200 ppm): 3.33 | Peroxide value ([4]; day 9, 200 ppm): 4.71 | Peroxide value ([4]; day 12, 200 ppm): 5.41 | Peroxide value ([4]; day 15, 200 ppm): 6.82 | Peroxide value ([4]; day 18, 200 ppm): 7.84 | Peroxide value ([4]; day 21, 200 ppm): 9.02 | Peroxide value ([4]; day 24, 200 ppm): 10.32 | Peroxide value ([4]; day 27, 200 ppm): 12.02 | Peroxide value ([4]; day 30, 200 ppm): 13.01 | Peroxide value ([4]; day 33, 200 ppm): 15.44 | Peroxide value ([4]; day 36, 200 ppm): 17.16 | Peroxide value ([4]; day 39, 200 ppm): 18.94 | Peroxide value ([4]; day 42, 200 ppm): 20.86 | Peroxide value ([4]; day 45, 200 ppm): 25.09 | Peroxide value ([4]; day 48, 200 ppm): 28.71 | Peroxide value ([4]; day 51, 200 ppm): 33.89 | Peroxide value ([4]; day 54, 200 ppm): 39.01 | Peroxide value ([4]; day 57, 200 ppm): 44.14 | Peroxide value ([4]; day 60, 200 ppm): 49.22 | Peroxide value ([4]; day 63, 200 ppm): 50.06 | Peroxide value ([4]; day 66, 200 ppm): 51.22 | Peroxide value ([4]; day 69, 200 ppm): 50.85 | Peroxide value ([4]; day 72, 200 ppm): 50.13 | Peroxide value ([4]; day 75, 200 ppm): 49.72 | Oxidative Stability Index (OSI) ([1]; 100° C., 500 ppm): 1.11 | Induction Time ([1]; 100° C., 500 ppm): 24.51 | Oxidative Stability Index (OSI) ([1]; 120° C., 500 ppm): 1.13 | Induction Time ([1]; 120° C., 500 ppm): 5.73 | Oxidative Stability Index (OSI) ([1]; 140° C., 500 ppm): 1.04 | Induction Time ([1]; 140° C., 500 ppm): 1.43 | Oxidative Stability Index (OSI) ([2]; 100° C., 500 ppm): 0.82 | Induction Time at 200 ppm ([2]; 100° C., 500 ppm): 22.06 | Oxidative Stability Index (OSI) ([2]; 120° C., 500 ppm): 0.86 | Induction Time at 200 ppm ([2]; 120° C., 500 ppm): 5.06 | Oxidative Stability Index (OSI) ([2]; 140° C., 500 ppm): 0.89 | Induction Time at 200 ppm ([2]; 140° C., 500 ppm): 1.32
